Entries after “also recorded” stand apart in the source; their conditions may differ.
What was measured:
[1] = system: NCI-H82; assay: MTT proliferation assay, SCLC; format: cell-based; conditions: Homo sapiens
Method: (§1) The antiproliferative activity was assessed by MTT proliferation assay (Table III) The anticancer activity was also investigated in a rare and lethal cancer (i.e. anaplastic thyroid cancer) by the use of three ATC-derived cell lines (Sw, FRO, 8505c). Again, the IC50 value after 72 h exposure was in the range of 10 to 50 nM. The same trend was also observed in four melanoma cell lines A2058, M14 (genotype BRAFV600E), SKMEL 197 e MEWO (genotype BRAF wild-type).
(§2) Table III IC50 expressed in μM and Emax (at 30 μM) for FC86 after 72 h exposure, were calculated by MTT assay

[2] = system: NCI-H69; assay: MTT proliferation assay, SCLC; format: cell-based; conditions: Homo sapiens
Method: as §1, §2

[3] = system: HCT-116; assay: MTT proliferation assay, colon cancer; format: cell-based; conditions: Homo sapiens
Method: as §1, §2

[4] = system: peripheral blood mononuclear cells (PBMC); assay: Annexin V apoptosis in PBMC from healthy donors (FACS); format: cell-based; conditions: 200 nM, 48 h
Method: FC86 was incubated with cells at the concentration of 200 nM for 48 h. Annexin V was detected by flow cytometry (FACS). PBMCs (Peripheral blood mononuclear cells) were not affected by FC86.

[5] = system: eight B-cell lymphoma cell lines; assay: MTT proliferation assay, panel of eight B-cell lymphoma cell lines; format: cell-based
Method: All the above compounds were tested in vitro for their anticancer activity against a panel of eight B-cell lymphoma cell lines by MTT proliferation assay. The tested cell lines belonging to mantle cell lymphoma (MCL: REC1, Z138), activated B-cell diffuse large B-cell lymphoma (ABC-DLBCL: R11, HBL1, U2932, TMD8), germinal center B-cell diffuse large B-cell lymphoma (GCB-DLBCL: SU-DHL-10, FARAGE) subtypes. In overall, MCL cell lines present Cyclin D1 overexpression, while ABC- and GCB-DLBCL's proliferation is BCR and BCL6/HDACs driven, respectively. At the RNA level, all tested lymphoma cell lines were characterized by an overexpression of 14-3-3 zeta as reported for B-cell lymphomas resistant to chemotherapeutic regimen.

[6] = system: healthy human thyroid cells; assay: Toxicity in healthy human thyroid cells (trypan blue staining); format: cell-based; conditions: 72 h
Method: FRTL5 were assayed with MTT, while healthy human thyroid cells by trypan blue staining. The percentage of dead cells, as counted after trypan blue staining, was around 10-15% at the dose of 800 nM of FC86.
To assess the toxicity FC86 was evaluated against a primary healthy human thyroid cell line at concentrations ranging from 3 nM to 800 nM for 72 h (FIG. 3). Data collected reveal that FC86 is not toxic for healthy human thyroid cells at concentration […] 400 nM. Such a concentration is 20× fold higher than IC50 detected in tumour cell lines.

[7] = system: SKMEL 197; assay: Antiproliferative activity, melanoma cell line; format: cell-based; conditions: melanoma SKMEL 197 (BRAF wild-type); read-out: IC50 (95% confidence interval)
Method: as §1

[8] = system: MEWO; assay: Antiproliferative activity, melanoma cell line; format: cell-based; conditions: Homo sapiens; melanoma MEWO (BRAF wild-type); read-out: IC50 (95% confidence interval)
Method: as §1

[9] = system: A2058; assay: Antiproliferative activity, melanoma cell line; format: cell-based; conditions: Homo sapiens; melanoma A2058 (BRAFV600E); read-out: IC50 (95% confidence interval)
Method: as §1

[10] = system: M14; assay: Antiproliferative activity, melanoma cell line; format: cell-based; conditions: Homo sapiens; melanoma M14 (BRAFV600E); read-out: IC50 (95% confidence interval)
Method: as §1

[11] = system: 14-3-3; assay: DARTS in U937 cells; format: binding; conditions: 50 nM, 2 h, MS and western blot
Method: FIG. 4 represents DARTS experiments results as reported in example 6: Proteins obtained from U937 cells incubated with 50 nM FC86 or with the medium for 2 h underwent subtilisin-catalyzed digestion.
Current protocols in chemical biology 2011, 3:163-180]. […] The same DARTS experiments were also performed by incubating glioblastoma cell lines (U87MG) with subtoxic amounts of FC86 and data collected confirmed the 14-3-3 as target protein. (FIG. 5).
The identification of putative targets of FC86 was achieved by Drug Affinity Responsive Target Stability (DARTS) experiments. Cancer cells were incubated with a sub-toxic concentration (50 nM for U937 and 5 μM for U87MG) of FC86 for 2 h or with the medium (control cells). After the treatments, treated and control cells were collected and whole protein extracts were prepared by lysing cells in 20 mM Tris-HCl (pH 7.5), 150 mM NaCl, 1 mM EDTA, 1 mM EGTA, 1% NP-40, 1% sodium deoxycholate, 2.5 mM sodium pyrophosphate, 1 mM β-glycerophosphate, 1 mM Na3VO4, 1 μg/ml leupeptin. Protein concentration was determined by the Bradford protein assay using bovine serum albumin as standard. […] Parameters sets were: trypsin cleavage; carbamidomethylation of cysteine as a fixed modification and methionine oxidation as a variable modification; a maximum of two missed cleavages; false discovery rate (FDR), calculated by searching the decoy database, 0.05. […]

With `Cc1ccc(S(=O)(=O)Nc2ccc3c(c2)/C(=C/c2cccs2)C(=O)N3)cc1` [FC86, N-[(3Z)-2-oxo-3-(thiophene-2-ylmethylidene)-2,3-dihydro-1H-indol-5-yl]-4-methylbenzenesulfonamide] the Emax at 30 µM ([1]; SCLC NCI-H82, 30 μM, 72 h) was 55%, the IC50 ([1]; SCLC NCI-H82, 72 h exposure) was 3000 nM and the Emax at 30 µM ([2]; SCLC NCI-H69, 30 μM, 72 h) was 80%. For the same molecule, the IC50 ([2]; SCLC NCI-H69, 72 h exposure) was 1400 nM, the Emax at 30 µM ([3]; Colon HCT-116, 30 μM, 72 h) was 62% and the IC50 ([3]; Colon HCT-116, 72 h exposure) was 1600 nM. For the same molecule, the “apoptosis (Annexin V) in PBMC” value [4] was “did not detect any sign of apoptosis; also recorded: not affected”, the IC50 ([5]; B-cell, read-out: IC50 in all eight lymphoma cell lines) was < 1000 nM and the “IC50 in eight different lymphoma cell lines” value ([5]; eight different lymphoma cell lines) was “nanomolar range”. For the same molecule, the “toxicity for healthy human thyroid cells” value ([6]; at concentration higher than 400 nM) was “not toxic”, the “percentage of dead cells (trypan blue staining)” value ([6]; healthy human thyroid cells, 800 nM) was 10-15% and the IC50 [7] was 20.7 nM. The IC50 [8] was 57 nM, the IC50 [9] was 28.6 nM and the IC50 [10] was 14.1 nM. The “resistance of 14-3-3 to subtilisin proteolysis (DARTS)” value [11] was “significant protection from proteolysis; also recorded: significant increment of resistance to proteolysis”.
